Data taken from ChEMBL document CHEMBL5614424, “Natural Product-Inspired Discovery of Naphthoquinone-Furo-Piperidine Derivatives as Novel STAT3 Inhibitors for the Treatment of Triple-Negative Breast Cancer” (J Med Chem, 2024).
Activity calls are given as the source filed them. The calls are words filed in the database; no cut-off is given here. Peptide text beside a SMILES is read from it. * marks the point of attachment. Cbz = O=C(OCc1ccccc1)*; CH2F = FC*

Assays:
MDA-MB-468 [1] = experiment: Induction of apoptosis in human MDA-MB-468 cells assessed as early apoptotic cells at 5 uM measured after 24 hrs incubation by the annexin V/propidium iodide (PI) double staining assay (reference value: 3.98%); format: functional
MDA-MB-231 [2] = experiment: Induction of apoptosis in human MDA-MB-231 cells assessed as late apoptotic cells at 5 uM measured after 24 hrs incubation by the annexin V/propidium iodide (PI) double staining assay (reference value: 2.69%); format: functional
MDA-MB-468 [3] = experiment: Induction of apoptosis in human MDA-MB-468 cells assessed as late apoptotic cells at 5 uM measured after 24 hrs incubation by the annexin V/propidium iodide (PI) double staining assay (reference value: 3.64%); format: functional
[4] = Antiproliferative activity against human MCF-10A cells assessed as cell viability incubated for 48 hrs measured after additional incubation with MTT; format: toxicity, cell-based
MDA-MB-468 [5] = experiment: Antiproliferative activity against human MDA-MB-468 cells assessed as cell viability incubated for 48 hrs measured after additional incubation with MTT; format: functional, cell-based; details: MDA-MB-468, 48 h
MDA-MB-231 [6] = experiment: Induction of apoptosis in human MDA-MB-231 cells assessed as early apoptotic cells at 5 uM measured after 24 hrs incubation by the annexin V/propidium iodide (PI) double staining assay (reference value: 2.46%); format: functional
MDA-MB-231 [7] = experiment: Antiproliferative activity against human MDA-MB-231 cells assessed as cell viability incubated for 48 hrs measured after additional incubation with MTT; format: functional, cell-based; details: MDA-MB-231, 48 h
MDA-MB-468 [8] = experiment: Induction of apoptosis in human MDA-MB-468 cells assessed as late apoptotic cells at 10 uM measured after 24 hrs incubation by the annexin V/propidium iodide (PI) double staining assay (reference value: 4.33%); format: functional
MDA-MB-231 [9] = experiment: Induction of apoptosis in human MDA-MB-231 cells assessed as early apoptotic cells at 10 uM measured after 24 hrs incubation by the annexin V/propidium iodide (PI) double staining assay (reference value: 2.37%); format: functional
MDA-MB-468 [10] = experiment: Induction of apoptosis in human MDA-MB-468 cells assessed as early apoptotic cells at 10 uM measured after 24 hrs incubation by the annexin V/propidium iodide (PI) double staining assay (reference value: 2.36%); format: functional
MDA-MB-231 [11] = experiment: Induction of apoptosis in human MDA-MB-231 cells assessed as late apoptotic cells at 10 uM measured after 24 hrs incubation by the annexin V/propidium iodide (PI) double staining assay (reference value: 3.08%); format: functional
[12] = target: T1, Signal transducer and activator of transcription 1-alpha/beta (Homo sapiens) (UniProt P42224); experiment: Inhibition of STAT1 activation in human MDA-MB-231 cell assessed as decrease in phosphorylated STAT1 (Tyr701) level at 1.25 to 5 uM measured after 24 hrs by Western blot analysis; format: cell-based; details: dose 1.25-5 µM
T1 sequence (whole entry): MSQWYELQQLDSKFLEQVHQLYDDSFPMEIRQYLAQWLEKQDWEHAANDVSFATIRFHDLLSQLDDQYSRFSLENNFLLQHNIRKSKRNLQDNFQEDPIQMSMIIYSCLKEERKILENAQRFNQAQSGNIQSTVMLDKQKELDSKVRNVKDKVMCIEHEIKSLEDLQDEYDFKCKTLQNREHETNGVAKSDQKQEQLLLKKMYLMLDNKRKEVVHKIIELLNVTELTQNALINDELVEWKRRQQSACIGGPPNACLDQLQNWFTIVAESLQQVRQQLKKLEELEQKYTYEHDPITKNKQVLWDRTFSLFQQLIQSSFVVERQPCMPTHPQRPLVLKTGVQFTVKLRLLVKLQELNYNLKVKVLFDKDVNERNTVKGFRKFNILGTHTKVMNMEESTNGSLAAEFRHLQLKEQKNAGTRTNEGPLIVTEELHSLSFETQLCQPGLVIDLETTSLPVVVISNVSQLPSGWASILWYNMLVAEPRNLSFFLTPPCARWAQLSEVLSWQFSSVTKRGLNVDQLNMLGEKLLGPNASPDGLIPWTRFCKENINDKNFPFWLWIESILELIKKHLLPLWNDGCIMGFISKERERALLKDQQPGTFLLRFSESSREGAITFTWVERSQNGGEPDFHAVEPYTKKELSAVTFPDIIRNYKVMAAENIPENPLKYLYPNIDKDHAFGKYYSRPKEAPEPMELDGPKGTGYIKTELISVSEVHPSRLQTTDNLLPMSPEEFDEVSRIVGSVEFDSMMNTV

MDA-MB-231 [13] = experiment: Induction of apoptosis in human MDA-MB-231 cells assessed as down-regulation of cleaved […] at 2.5 to 5 uM measured after 24 hrs by Western blotting analysis; format: functional, cell-based; details: dose 2.5-5 µM
MDA-MB-468 [14] = experiment: Induction of apoptosis in human MDA-MB-468 cells assessed as […] at 2.5 to 5 uM measured after 24 hrs by Western blotting analysis; format: functional, cell-based; details: dose 2.5-5 µM
MDA-MB-231 [15] = experiment: Induction of apoptosis in human MDA-MB-231 cells assessed as down-regulation of cleaved Bcl-2 at 2.5 to 5 uM measured after 24 hrs by Western blotting analysis; format: functional, cell-based; details: dose 2.5-5 µM
MDA-MB-468 [16] = experiment: Induction of apoptosis in human MDA-MB-468 cells assessed as up-regulation of cleaved caspase 9 at 2.5 to 5 uM measured after 24 hrs by Western blotting analysis; format: functional, cell-based; details: dose 2.5-5 µM
MDA-MB-231 [17] = experiment: Decrease in STAT5 expression level in human MDA-MB-231 cell cytoplasm at 1.25 to 5 uM measured after 24 hrs by Western blot analysis; format: functional, cell-based; details: dose 1.25-5 µM
MDA-MB-468 [18] = experiment: Decrease in STAT5 expression level in human MDA-MB-468 cell nucleus at 1.25 to 5 uM measured after 24 hrs by Western blot analysis; format: functional, cell-based; details: dose 1.25-5 µM
MDA-MB-468 [19] = experiment: Decrease in STAT5 expression level in human MDA-MB-468 cell cytoplasm at 1.25 to 5 uM measured after 24 hrs by Western blot analysis; format: functional, cell-based; details: dose 1.25-5 µM
MDA-MB-231 [20] = experiment: Induction of apoptosis in human MDA-MB-231 cells assessed as up-regulation of cleaved Bax at 2.5 to 5 uM measured after 24 hrs by Western blotting analysis; format: functional, cell-based; details: dose 2.5-5 µM
MDA-MB-231 [21] = experiment: In vivo antitumor activity against human MDA-MB-231 cells xenografted in Female BALB/c-nude assessed as up-regulation of C-Caspase 3 expression in tumor tissue at 15 to 30 mg/kg, ip once daily for 21 consecutive days by […]; format: functional, organism-based; details: dose 15-30 mg/kg, time 21.0 day
MDA-MB-231 [22] = experiment: In vivo antitumor activity against human MDA-MB-231 cells xenografted in Female BALB/c-nude assessed as increase in TUNEL positive cells in tumor tissue at 15 to 30 mg/kg, ip once daily for 21 consecutive days by TUNEL cell apoptosis assay; format: functional, organism-based; details: dose 15-30 mg/kg, time 21.0 day
[23] = target: T2, Signal transducer and activator of transcription 5A (Homo sapiens) (UniProt P42229); experiment: Inhibition of STAT5 activation in human MDA-MB-231 cell assessed as decrease in […] level at 1.25 to 5 uM measured after 24 hrs by Western blot analysis; format: cell-based; details: dose 1.25-5 µM
T2 sequence (whole entry): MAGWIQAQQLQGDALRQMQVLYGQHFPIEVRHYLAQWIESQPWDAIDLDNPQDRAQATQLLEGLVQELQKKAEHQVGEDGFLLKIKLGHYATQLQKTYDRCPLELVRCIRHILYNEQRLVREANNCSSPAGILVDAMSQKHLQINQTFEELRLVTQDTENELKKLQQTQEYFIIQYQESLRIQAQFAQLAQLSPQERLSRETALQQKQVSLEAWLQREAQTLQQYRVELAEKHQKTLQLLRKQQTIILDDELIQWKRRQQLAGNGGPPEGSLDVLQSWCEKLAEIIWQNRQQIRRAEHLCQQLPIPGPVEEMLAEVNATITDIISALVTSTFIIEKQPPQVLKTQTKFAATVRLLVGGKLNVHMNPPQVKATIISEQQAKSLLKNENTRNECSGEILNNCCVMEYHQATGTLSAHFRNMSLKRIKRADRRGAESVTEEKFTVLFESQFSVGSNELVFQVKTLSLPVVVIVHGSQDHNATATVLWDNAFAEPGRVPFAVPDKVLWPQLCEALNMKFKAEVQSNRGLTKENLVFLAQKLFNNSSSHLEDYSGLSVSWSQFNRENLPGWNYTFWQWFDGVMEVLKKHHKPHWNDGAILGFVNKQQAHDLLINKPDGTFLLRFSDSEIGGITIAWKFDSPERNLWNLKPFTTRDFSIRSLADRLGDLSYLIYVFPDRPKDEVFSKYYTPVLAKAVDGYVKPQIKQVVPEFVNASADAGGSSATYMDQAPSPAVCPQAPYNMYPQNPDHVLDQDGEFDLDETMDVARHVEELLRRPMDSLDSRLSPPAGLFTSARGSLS

MDA-MB-231 [24] = experiment: Induction of apoptosis in human MDA-MB-231 cells assessed as up-regulation of cleaved caspase 9 at 2.5 to 5 uM measured after 24 hrs by Western blotting analysis; format: functional, cell-based; details: dose 2.5-5 µM
MDA-MB-468 [25] = experiment: Induction of apoptosis in human MDA-MB-468 cells assessed as up-regulation of cleaved Bax at 2.5 to 5 uM measured after 24 hrs by Western blotting analysis; format: functional, cell-based; details: dose 2.5-5 µM
MDA-MB-468 [26] = experiment: Induction of apoptosis in human MDA-MB-468 cells assessed as up-regulation of cleaved caspase 3 at 2.5 to 5 uM measured after 24 hrs by Western blotting analysis; format: functional, cell-based; details: dose 2.5-5 µM
MDA-MB-231 [27] = experiment: Induction of apoptosis in human MDA-MB-231 cells assessed as up-regulation of cleaved caspase 3 at 2.5 to 5 uM measured after 24 hrs by Western blotting analysis; format: functional, cell-based; details: dose 2.5-5 µM
MDA-MB-231 [28] = experiment: Inhibition of colony formation in human MDA-MB-231 cells assessed as reduction in colony number and size at 1.25 to 5 uM by plate colony formation assay; format: functional, cell-based; details: dose 1.25-5 µM
MDA-MB-231 [29] = experiment: In vivo antitumor activity against human MDA-MB-231 cells xenografted in Female BALB/c-nude assessed as down-regulation of p-STAT3 expression in tumor tissue at 15 to 30 mg/kg, ip once daily for 21 consecutive days by […]; format: functional, organism-based; details: dose 15-30 mg/kg, time 21.0 day
MDA-MB-231 [30] = experiment: Inhibition of cell migration in human MDA-MB-231 cells assessed as decrease in wound closure rate at 5 uM incubated for 6 to 24 hrs by wound healing assay; format: functional, cell-based; details: time 6-24 hrs
MDA-MB-231 [31] = experiment: Anti-invasion ability in human MDA-MB-231 cells assessed as reduction in cell invasion and migration ability rate incubated for 24 hrs by Boyden chamber transwell assay; format: functional, cell-based; details: dose 1.25-5 µM
MDA-MB-468 [32] = experiment: Induction of apoptosis in human MDA-MB-468 cells assessed as down-regulation of cleaved Bcl-2 at 2.5 to 5 uM measured after 24 hrs by Western blotting analysis; format: functional, cell-based; details: dose 2.5-5 µM
MDA-MB-231 [33] = experiment: Decrease in STAT5 expression level in human MDA-MB-231 cell nucleus at 1.25 to 5 uM measured after 24 hrs by Western blot analysis; format: functional, cell-based; details: dose 1.25-5 µM

## CC(=O)c1cc2c(o1)C(=O)c1ccccc1C2=O [NAPABUCASIN]
MDA-MB-468 [1]
  Activity: 6.32%
MDA-MB-231 [2]
  Activity: 12.07%
MDA-MB-468 [3]
  Activity: 10%
[4]
  IC50 at 48 h: 7.94 µM
MDA-MB-468 [5]
  IC50: 5.22 µM
MDA-MB-231 [6]
  Activity: 4.76%
MDA-MB-231 [7]
  IC50: 2.94 µM

## CC(C)[C@H](NC(=O)OCc1ccccc1)C(=O)N[C@@H](C)C(=O)N[C@@H](CC(=O)O)C(=O)CF (Cbz-Val-Ala-Asp-CH2F)
MDA-MB-468 [8]
  Activity: 2.19%
MDA-MB-231 [9]
  Activity: 2.76%
MDA-MB-468 [10]
  Activity: 5.02%
MDA-MB-231 [11]
  Activity: 2.63%

## CC(C)C[C@@H](CO)N1CCc2c(oc3c2C(=O)C(=O)c2ccccc2-3)C1
[12]
  inhibition: inactive
MDA-MB-231 [13]
  Activity: Active
MDA-MB-468 [14]
  Activity: Active
MDA-MB-231 [15]
  Activity: Active
MDA-MB-468 [16]
  Activity: Active
MDA-MB-231 [17]
  Activity: inactive
MDA-MB-468 [18]
  Activity: Active
MDA-MB-468 [19]
  Activity: inactive
MDA-MB-231 [20]
  Activity: Active
MDA-MB-231 [21]
  Activity: Active
MDA-MB-231 [22]
  Activity: Active
[23]
  inhibition: inactive
MDA-MB-231 [24]
  Activity: Active
MDA-MB-468 [25]
  Activity: Active
MDA-MB-468 [26]
  Activity: Active
MDA-MB-231 [27]
  Activity: Active
MDA-MB-231 [28]
  inhibition: Active
MDA-MB-231 [29]
  Activity: Active
MDA-MB-231 [30]
  inhibition: Active
MDA-MB-231 [31]
  Activity: Dose-Dependent Effect
MDA-MB-468 [32]
  Activity: Active
MDA-MB-231 [33]
  Activity: Active
